Assay results: US12138334B2, “Antidandruff composition” (Conopco, Inc., priority 2019, dated 2024)
Structures can show the parent of a compound that is named as a salt.

Key:
[1] = test system: Malassezia furfur 14521; assay: Antifungal activity on M. furfur (resazurin viability, MIC and ΣFIC); type: cell-based; conditions: M. furfur 14521, YPD broth, 30° C., 72 hours, resazurin colour
Description: The samples as given in Table 1 were subjected to their anti fungal efficacy on M. furfur as described hereinafter.
The test organism used in the assay is Malassezia furfur 14521. The M. furfur were revived from glycerol stock in YPD agar plates (yeast extract peptone dextrose media) containing 1% corn oil. The composition of YPD is yeast extract:10 g/litre, dextrose 20 g/litre, Peptone 20 g/litre and agarose 0.15%. The plates were incubated at 30° C. for 72 hours for forming fungal colonies. A suspension culture of M. furfur was made using the colonies from plates in YPD broth. The optical density of the suspension culture was adjusted to 0.6 using spectrophotometer. This suspension was diluted in the ratio of 1:10 using YPD broth and 100 μl of this culture was added into each well of 96 well test plate. A stock solution of 40× strength of piroctone olamine was prepared for each of the concentrations tested eg for 0.0.001% test concentration of piroctone olamine a stock of 0.04% was prepared in DMSO (dimethyl sulphoxide). 5 μl of piroctone olamine was added to 100 μl of M. furfur culture. A stock solution of 4× strength of itaconic acid or sodium benzoate was prepared for each of the concentrations tested e.g. for 0.0.001% test concentration of itaconic acid or sodium benzote a stock of 0.004% was prepared in YPD broth. 50 μl of itaconic acid or sodium benzoate was added to 100 μl of M. furfur culture. In wells containing only one test ingredient, (itaconic acid or sodium benzoate only) 50 μl of test ingredient was added to 100 μl of fungal culture and then made up the volume to 200 μl with YPD broth. In wells containing only piroctone olamine 5 μl of piroctone olamine was added to 100 μl of fungal culture and then made up the volume to 200 μl with YPD broth. […] The anti-fungal efficacy of the ingredient or combination of ingredients is calculated based on the colour development. […]
The combinations of test ingredients with synergistic anti-fungal benefits were evaluated using ΣFIC method. The ΣFIC of the combinations were calculated using the following formula: […]

[2] = cited from earlier work

| SMILES | Minimum inhibitory concentration (MIC) [1] [wt %] | solubility in 10% ethanol in water ([2]; 10% ethanol in water) | solubility in solution containing surfactants in water or in 1%-10% ethanol ([2]; solution containing surfactants in water or in 1%-10% ethanol) |
| --- | --- | --- | --- |
| C=C(CC(=O)OC)C(=O)OC [Dimethyl itaconate] | 0.5 | – | – |
| Cc1cc(CC(C)CC(C)(C)C)n(O)c(=O)c1 (centres unmarked) [Piroctone olamine, 1-Hydroxy-4-methyl-6-(2,4,4-trimethylpentyl)-2-(1H)pyridinone,2-aminoethanol salt] | 0.002 | soluble | soluble |
| O=C([O-])c1ccccc1.[Na+] [Sodium benzoate] | 0.5 | – | – |
